Results published in US20210161868A1, “ANTI-INFLAMMATORY THERAPY IN ARRHYTHMOGENIC CARDIOMYOPATHY (ACM)” (Beth Israel Deaconess Medical Center, Inc., priority 2018, published 2021).

Tested on: Dsg2^mut/mut mice
Assay: Myocardial histology, TUNEL, immunofluorescence and immunoperoxidase in Dsg2^mut/mut mice
Format: in vivo
Experimental: Three cohorts of mice at 8 weeks of age were anesthetized and implanted with subcutaneous osmotic mini-pumps (Alzet, Model 1004). These included: 1) Dsg2^mut/mut mice with pumps containing 50 μg/μL Bay11-7082 in a vehicle of 65% DMSO, 15% ethanol, and 20% saline; 2) Dsg2^mut/mut mice with pumps containing an equivalent volume of vehicle; and 3) wildtype mice with pumps containing vehicle. Mice in cohort 1 received 5 mg/kg/day of Bay11-7082 by continuous infusion; those in cohorts 2 and 3 received an equivalent volume of vehicle each day for 4 weeks. At 12 weeks of age, mice were re-anesthetized and new Alzet pumps were implanted for an additional 4 weeks of treatment.
Immunofluorescence staining was used to characterize the distribution of selected proteins at cell-cell junctions as previously reported.^6,15 Deparaffinized slide-mounted myocardial sections (5 μm thick) were rehydrated and heated in citrate buffer (10 mmol/L, pH 6.0) to enhance specific immunostaining. After being cooled to room temperature, tissue sections were simultaneously permeabelized and blocked by incubating them in PBS containing 1% Triton X-100, 3% normal goat serum and 1% bovine serum albumin. The sections were then incubated first with primary antibodies and then with Cy3-conjugated goat anti-rabbit IgG (Jackson Immunolabs, 1:400). Primary antibodies included rabbit polyclonal anti-Cx43 (SIGMA C6219, 1:200), anti-N-cadherin (SIGMA C3678, 1:400), anti-plakoglobin (Thermo Fisher Scientific PA5-17320, 1:500), anti-GSK3β (Cell Signaling Technology 27C10, 9315S, 1:80) and anti-SAP97 (Abcam, ab134156, 1:200). Immunostained preparations were visualized by confocal microscopy. Additional sections prepared with Masson trichrome and hematoxylin & eosin stains were examined by light microscopy.
Immunoperoxidase staining was used to detect expression of selected cytokines in sections of mouse myocardium as previously reported.^12 Slide-mounted paraffin sections were heated to 60° C. for 80 minutes, cooled to room temperature, deparaffinized, and rehydrated. Antigen retrieval was achieved by heating the samples in citrate buffer (pH 6.0) to boiling followed by cooling to room temperature. Immunohistochemical staining was performed using conventional methods (Universal DAKO EnVision System; peroxidase). Once endogenous peroxidase activity had been blocked, primary antibody was applied followed by incubation with horseradish peroxidase-labeled polymer. The reaction was completed with an enzyme/substrate system, with diaminobenzidine as the chromogen substrate. The tissue was counterstained with Harris hematoxylin. Primary antibodies included rabbit polyclonal anti-TNFα (AbCam ab34674, 1:50 dilution), anti-IL-1(3 (AbCam ab9722, 1:500) and anti-MCP-1α (Novus Biologicals NBP2-41209, 1:250). In each experiment, control, vehicle-treated and drug-treated samples were batched to ensure identical staining and signal-generating conditions.
Immunoperoxidase staining using conventional techniques was also used to detect T-cells and macrophages in myocardial tissue sections from Dsg2^mut/mut mice. T-cells were identified using an anti-CD3 antibody (Abcam ab16669, 1:200 dilution) and macrophages were marked with an anti-CD68 antibody (Abcam ab127055, 1:400). After standard development in diaminobenzidine, sections were counterstained with hematoxylin and examined qualitatively by light microscopy.

[1] = Dsg2^mut/mut mice, continuous infusion over 8 weeks

Cc1ccc(S(=O)(=O)/C=C/C#N)cc1 [Bay 11-7082]
abnormal distributions of plakoglobin, Cx43, GSK3β and SAP97 [1]: normalized
amount of ventricular myocardial necrosis and fibrosis [1]: marked reduction
number of apoptotic cells seen by TUNEL labeling [1]: significant reduction
abnormal distributions of plakoglobin, Cx43, GSK3β and SAP97 (Dsg2^mut/mut mice, continuous infusion over 8 weeks, listed as Bay11-7082): fully corrected
immunoreactive signal intensity for IL-1β, TNFα and MCP-1α in myocytes and inflammatory cells (myocardial sections of Dsg2^mut/mut mice): reduced
total number of infiltrating inflammatory cells in the heart (survey of myocardial sections, Dsg2^mut/mut mice): reduced
